Measured values taken from patent US20140005164A1, “WNT PATHWAY ANTAGONISTS” (Siena Biotech S.p.A., priority 2011, published 2014).
Like-named read-outs stand apart in the source and are kept apart here.

Tested on: Wnt/β-catenin pathway
Assay: Wnt reporter assay (TCF-Luciferase, Firefly) in DBTRG-05MG cells
Assay type: cell-based
Details: Homo sapiens, read-out: IC50 value in the reporter assay
Description: Three copies of a 4×TCF responsive elements were cloned into the pcDNA3.1/Zeo(+) vector (Invitrogen) after deletion of the constitutive CMV promoter and the insertion of the Firefly Luciferase from Promega (phFL-TK) to measure the activity of the Wnt/β-catenin pathway. The resulting plasmid was sequenced for quality control.
Cells were grown in 20 μg/ml Zeocin and 20 μg/ml Zeocin plus 30 μg/ml Hygromicin respectively. The cells were plated at a density of 6500 cells/well in poly-D-lysine pre-treated 96 well-plates.
36 hours after plating cells were incubated with 8-points dilutions compound (0.6% DMSO (v/v)). Each compound was tested in triplicate in single plate. Luciferase detection was done with Dual-Luciferase Reporter Assay System (Promega). 24 hours after compound addition, media was removed and 30 μl of 1× lysis buffer was added to each well for 30 minutes. To each well 45 μl of Dual-Glo Luciferase reagent (Promega) were added and after 1 second delay Luciferase was detected for 1 second using Mithras LB940 instrument. After Firefly luciferase quantification 45 μl of Dual Stop & Glo reagent (Promega) were added to each well and […] Renilla was detected using the same parameters described before.
Data were expressed as % of control for Firefly and Renilla luciferase independently; values were calculated using XLFit version 4.2, with a four parameters sigmoid function (XLFit model 205).

[1] = TCF-Luciferase (Firefly) read out, 24 hours after compound addition, range given with mixed units nM and μM

IC50 [1] [nM] | Compound | IC50 (24 h) [nM]
35 to 23000 | COc1ccc2c(c1)n(C[C@H]1CC[C@H](c3nnc(-c4ccc(C)nc4)o3)CC1)c(=O)n2C [Example 98] | 
35 to 23000 | COCCOc1cc2c(cc1F)n(C)c(=O)n2C[C@H]1CC[C@H](C(=O)N2CCOCC2)CC1 [Example 177] | 
35 to 23000 | COc1cc2c(cc1F)n(C)c(=O)n2C[C@H]1CC[C@H](C(=O)N2CC=C(c3cnn(C)c3)CC2)CC1 [Example 143] | 
35 to 23000 | Cn1c(=O)n(C[C@H]2CC[C@H](C(=O)Nc3ccncc3)CC2)c2cc(OCc3ccncc3)ccc21 [Example 151] | 
35 to 23000 | COCCOc1cc2c(cc1F)n(C)c(=O)n2C[C@H]1CC[C@H](C(=O)Nc2ccnnc2)CC1 [Example 176] | 
35 to 23000 | COc1ccc2c(c1)n(C[C@H]1CC[C@H](C(=O)N3CCN(c4nccc(OC)n4)CC3)CC1)c(=O)n2C [Example 51] | 
35 to 23000 | COCCOc1cc(NC(=O)[C@H]2CC[C@H](Cn3c(=O)n(C)c4cc(Cl)ccc43)CC2)ccn1 [Example 57] | 
35 to 23000 | COc1ccc2c(c1)n(C[C@H]1CC[C@H](c3nnc(-c4cc(C)on4)o3)CC1)c(=O)n2C [Example 131] | 
35 to 23000 | COc1ccc2c(c1)n(C[C@H]1CC[C@H](C(=O)N3CC4(COC4)C3)CC1)c(=O)n2C [Example 95] | 
35 to 23000 | COc1ccc2c(c1)n(C[C@H]1CC[C@H](C(=O)N3CCN(c4cc(C)nc(C)c4)CC3)CC1)c(=O)n2C [Example 94] | 
35 to 23000 | COc1ccc2c(c1)n(C[C@H]1CC[C@H](C(=O)N3CCN(c4ccn(C)n4)CC3)CC1)c(=O)n2C [Example 132] | 
35 to 23000 | Cn1c(=O)n(C[C@H]2CC[C@H](C(=O)N3CCN(c4nccs4)CC3)CC2)c2cccc(Cl)c21 [Example 56] | 
35 to 23000 | CONC(=O)C1CCN(C(=O)[C@H]2CC[C@H](Cn3c(=O)n(C)c4ccc(OC)cc43)CC2)CC1 [Example 85] | 
35 to 23000 | COc1ccc2c(c1)n(C[C@H]1CC[C@H](C(=O)N3CCN(c4ccnc(OC)c4)CC3)CC1)c(=O)n2C [Example 91] | 
35 to 23000 | COCCOc1ccc2c(c1)n(C[C@H]1CC[C@H](C(=O)N3CC=C(c4cnn(C)c4)CC3)CC1)c(=O)n2C [Example 130] | 
35 to 23000 | COc1ccc2c(c1)n(C[C@H]1CC[C@H](c3nnc(-c4ccn(C)n4)o3)CC1)c(=O)n2C [Example 110] | 
35 to 23000 | Cn1c(=O)n(C[C@H]2CC[C@H](C(=O)Nc3ccncc3)CC2)c2c(Cl)cccc21 [Example 28] | 
35 to 23000 | COc1ccc2c(c1)n(C[C@H]1CC[C@H](C(=O)N3CCN(c4ccc(F)nc4)CC3)CC1)c(=O)n2C [Example 89] | 
35 to 23000 | COc1ccc2c(c1)n(C[C@H]1CC[C@H](C(=O)Nc3ccc(-c4nnco4)cc3)CC1)c(=O)n2C [Example 66] | 
35 to 23000 | COc1ccc2c(c1)n(C[C@H]1CC[C@H](C(=O)Nc3ccncn3)CC1)c(=O)n2C [Example 104] | 
35 to 23000 | COc1ccc(COc2ccc3c(c2)n(C[C@H]2CC[C@H](C(=O)Nc4ccncc4)CC2)c(=O)n3C)cc1 [Example 6, Trans-4-[6-(4-Methoxy-benzyloxy)-3-methyl-2-oxo-2,3-dihydro-benzoimidazol-1-ylmethyl]-cyclohexanecarboxylic acid pyridin-4-ylamide] | 
35 to 23000 | Cn1c(=O)n(C[C@H]2CC[C@H](C(=O)Nc3ccncc3)CC2)c2[nH]c(=O)ccc21 [Example 139] | 
35 to 23000 | Cn1cc(C2=CCN(C(=O)[C@H]3CC[C@H](Cn4c(=O)n(C)c5ccc(=O)[nH]c54)CC3)CC2)cn1 [Example 135] | 
35 to 23000 | COc1ccc2c(c1)n(C[C@H]1CC[C@H](C(=O)N3CCN(c4cccc(OC)n4)CC3)CC1)c(=O)n2C [Example 65] | 

IC50 [1] [nM] | Compound | IC50 (24 h) [nM]
35 to 23000 | COc1ccc2c(c1)n(C[C@H]1CC[C@H](C(=O)N3CCN(C(=O)[C@@H]4CCC(=O)O4)CC3)CC1)c(=O)n2C [Example 74] | 
35 to 23000 | COc1ccc2c(c1)n(C[C@H]1CC[C@H](C(=O)Nc3nc4ccccc4s3)CC1)c(=O)n2C [Example 187] | 
35 to 23000 | COCCN(C)c1ncccc1NC(=O)[C@H]1CC[C@H](Cn2c(=O)n(C)c3ccc(OC)cc32)CC1 [Example 45] | 
35 to 23000 | Cn1c(=O)n(C[C@H]2CC[C@H](C(=O)Nc3ccncc3)CC2)c2cc(C3CC3)ccc21 [Example 69] | 
 | COCCN(C)c1ncc2c(n1)n(C[C@H]1CC[C@H](C(=O)Nc3ccncc3)CC1)c(=O)n2C [Example 8, Trans-4-{2-[(2-Methoxy-ethyl)-methyl-amino]-7-methyl-8-oxo-7,8-dihydro-purin-9-ylmethyl}-cyclohexanecarboxylic acid pyridine-4-ylamide] | 35 to 23000
35 to 23000 | COc1ccc2c(c1)n(C[C@H]1CC[C@H](C(=O)N3CCC(c4ncccn4)CC3)CC1)c(=O)n2C [Example 82] | 
35 to 23000 | COc1ccc2c(c1)n(C[C@H]1CC[C@H](C(=O)Nc3cccc4ncccc34)CC1)c(=O)n2C [Example 188] | 
35 to 23000 | COCCOc1cc(NC(=O)[C@H]2CC[C@H](Cn3c(=O)n(C)c4ccc(OC)cc43)CC2)ccn1 [Example 36] | 
35 to 23000 | COCCOc1ccc2c(c1)n(C[C@H]1CC[C@H](C(=O)Nc3ccncn3)CC1)c(=O)n2C [Example 122] | 
35 to 23000 | COc1ccc2c(c1)n(C[C@H]1CC[C@H](c3nnc(-c4cn(C)nc4C(F)(F)F)o3)CC1)c(=O)n2C [Example 11, 5-Methoxy-1-methyl-3-{trans 4-[5-(1-methyl-3-trifluoromethyl-1H-pyrazol-4-yl)-[1,3,4]oxadiazol-2-yl]-cyclohexylmethyl}-1,3-dihydro-benzoimidazol-2-one] | 
35 to 23000 | COc1ccc2c(c1)n(C[C@H]1CC[C@H](c3nnc(-c4cccnc4)o3)CC1)c(=O)n2C [Example 96] | 
35 to 23000 | COc1ccc2c(c1)n(C[C@H]1CC[C@H](C(=O)Nc3ccn(C)n3)CC1)c(=O)n2C [Example 133] | 
35 to 23000 | COc1cc2c(cc1F)n(C)c(=O)n2C[C@H]1CC[C@H](C(=O)N2C[C@@H](C)O[C@@H](C)C2)CC1 [Example 179] | 
35 to 23000 | COc1ccc2c(c1)n(C[C@H]1CC[C@H](C(=O)N3CCN(c4cccc(C(F)(F)F)n4)CC3)CC1)c(=O)n2C [Example 87] | 
35 to 23000 | COCCOc1ccc2c(c1)n(C[C@H]1CC[C@H](c3nnc(-c4cccnc4)o3)CC1)c(=O)n2C [Example 146] | 
35 to 23000 | COc1ccc2c(c1)n(C[C@H]1CC[C@H](c3nnc(-c4csc(C)n4)o3)CC1)c(=O)n2C [Example 99] | 
35 to 23000 | COc1ccc2c(c1)n(C[C@H]1CC[C@H](C(=O)N3CCC(c4cnccn4)CC3)CC1)c(=O)n2C [Example 83] | 
35 to 23000 | COc1ccc2c(c1)n(C[C@H]1CC[C@H](C(=O)Nc3cccnc3)CC1)c(=O)n2C [Example 37] | 
35 to 23000 | COCCN(C)c1ccc2c(n1)n(C[C@H]1CC[C@H](C(=O)Nc3ccncc3)CC1)c(=O)n2C [Example 108] | 
35 to 23000 | COCCNc1ccc2c(c1)n(C[C@H]1CC[C@H](C(=O)Nc3ccncc3)CC1)c(=O)n2C [Example 78] | 
35 to 23000 | COc1ccc2c(c1)n(C[C@H]1CC[C@H](C(=O)N3CCN(c4ccnc(F)c4)CC3)CC1)c(=O)n2C [Example 79] | 
35 to 23000 | COCC#Cc1ccc2c(n1)n(C[C@H]1CC[C@H](C(=O)N3CCN(C(C)=O)CC3)CC1)c(=O)n2C [Example 102] | 
35 to 23000 | COCCOc1ccc2c(n1)n(C[C@H]1CC[C@H](C(=O)Nc3ccnnc3)CC1)c(=O)n2C [Example 173] | 
